In patent publication US5443986A, “Enzymatic analysis using substrates that yield fluorescent precipitates” (Molecular Probes, Inc., priority 1993, dated 1995):

Legend:
β-galactosidase [1] = assay: Labeling of lacZ positive yeast cells; type: cell-based, Yeast strain EG 123; settings: 200 μM staining solution mixed with equal volume of cells, after 300 μM chloroquine
Experimental: 2.1 Yeast Strain: Yeast strain EG 123 is transformed with plasmid pLGΔ-312S, which carries the yeast CYC1 promotor region and initiation codon fused in frame with the lacZ gene. The cells are grown in a synthetic medium selecting for plasmid maintenance to a density of about 10^7 cells per mL. Cells are collected by centrifugation and resuspended in Z buffer to obtain a cell suspension. Z buffer contains 0.2% β-mercaptoethanol which improves the permeability of both the yeast cell wall and the plasma membrane. Nontransformed yeast cells are used as the control.
2.2 Staining Solution: The galactosidase substrate (1h) is first dissolved in DMSO to get 10 mM stock solution. This solution is diluted 1:50 with distilled water to obtain a 200 μM staining solution.
2.3 Staining and Examination of Cells: To inhibit endogenous vacuolar galactosidase activity, yeast cells are first preincubated with 300 μM chloroquine for 20 minutes at room temperature, then mixed with an equal volume of the substrate-containing staining solution. Most of the lacZ positive cells become fluorescent within 15 minutes. A crystalline precipitate can be observed in the cells, while the lacZ negative cells remain unstained for at least 2 hours.

[2] = test system: NIH/3T3 cells and CRE BAG 2 cells; assay: Cytotoxicity and cellular retention in fibroblast cells; type: cell-based
Experimental: (§1) 1.1 Cell Lines: NIH/3T3 cells (lacZ negative) and CRE BAG 2 cells (3T3 cells transformed with a retrovirus containing the lacZ gene) are employed for cellular assays. Both cell lines can be obtained from American Type Culture Collection Co., Rockville, Md. The cells are grown in a humidified atmosphere of 5% CO2 in Dulbecco's modified Eagle's medium supplemented with 10% calf serum, 50 μg/mL gentamicin, 300 μg/mL L-glutamine and 10 mM HEPES pH 7.4.
(§2) 1.3 Working Medium: 100 μL of the dye stock solution is added to 10 mL of fresh culture medium to prepare a "working medium" containing 100 μM of the substrate 1h. This medium is then filter-sterilized by passing through an Acrodisc™ filter (0.45μ pore size).

β-galactosidase [3] = biological target: T1, β-galactosidase (Escherichia coli, UniProt P00722); assay: Labeling of lacZ positive fibroblast cells with a β-galactosidase substrate; type: cell-based
T1 construct: host or cells: CRE BAG 2 cells (NIH/3T3 cells transformed with a retrovirus containing lacZ)
Experimental: as §1
1.2 Stock Solution of the Labeling Reagent: The β-galactosidase substrate 1h is dissolved in DMSO to get a 10 mM stock solution.
as §2
1.4 Staining and Examination of Cells: Cells grown on coverslips are transferred to the working medium and incubated at 37° C. under normal culture conditions. Cells are examined at the desired time for their fluorescence under a Zeiss microscope equipped with a Hoechst filter set (typically excitation at about 360 nm and emission past 480 nm). […] After 6 hours, the fluorescence intensity of stained CRE BAG 2 cells reaches its highest level.

[4] = test system: epidermal growth factor (EGF) receptors; assay: Detection of a growth factor receptor in A431 cells; type: cell-based, human; settings: fluorescence microscope; substrate 0.1 mM 15 minutes, or 50 ng/mL direct conjugate
Experimental: 1 ). Cells. Dish-cultured A431 cells (American Type Culture Collection, Rockville, Md.) are digested with trypsin and transferred to glass cover-slips. The cells are subcultured and stabilized for 24 to 48 hours before use.
2). Staining. The slips are transferred into a staining dish, washed with PBS, rinsed in a 0.5% formaldehyde PBS solution for 15 minutes at room temperature, washed with PBS, then incubated in 50 ng/mL biotinylated epidermal growth factor (biotin-EGF; Molecular Probes, Inc., Eugene, Oreg.) in PBS solution for 30 minutes at room temperature. The slips are washed with PBS buffer, then incubated with 1 μg/mL streptavidin alkaline phosphatase (Molecular Probes, Inc.) in a reaction buffer (0.1M TRIS pH 7.8 containing 0.15M NaCl, 50 mM MgCl2 and 0.1 mM ZnCl2) for 30 minutes at room temperature. The slips are washed with the reaction buffer, then incubated with 0.1 mM of a precipitating alkaline phosphatase substrate in the reaction buffer for 15 minutes at room temperature. The substrate solution is filtered through a 0.2 μM filter (Millipore, Bedford, Mass.) before use.
3). Detection. The slips are washed with PBS then examined under a Zeiss fluorescence microscope equipped with suitable filters (typically excitation at about 360 nm and emission past 480 nm). […] Alternatively the fluorescent labeled cells can be detected and the intensity quantitated by flow cytometry.

T1 sequence (P00722 whole entry): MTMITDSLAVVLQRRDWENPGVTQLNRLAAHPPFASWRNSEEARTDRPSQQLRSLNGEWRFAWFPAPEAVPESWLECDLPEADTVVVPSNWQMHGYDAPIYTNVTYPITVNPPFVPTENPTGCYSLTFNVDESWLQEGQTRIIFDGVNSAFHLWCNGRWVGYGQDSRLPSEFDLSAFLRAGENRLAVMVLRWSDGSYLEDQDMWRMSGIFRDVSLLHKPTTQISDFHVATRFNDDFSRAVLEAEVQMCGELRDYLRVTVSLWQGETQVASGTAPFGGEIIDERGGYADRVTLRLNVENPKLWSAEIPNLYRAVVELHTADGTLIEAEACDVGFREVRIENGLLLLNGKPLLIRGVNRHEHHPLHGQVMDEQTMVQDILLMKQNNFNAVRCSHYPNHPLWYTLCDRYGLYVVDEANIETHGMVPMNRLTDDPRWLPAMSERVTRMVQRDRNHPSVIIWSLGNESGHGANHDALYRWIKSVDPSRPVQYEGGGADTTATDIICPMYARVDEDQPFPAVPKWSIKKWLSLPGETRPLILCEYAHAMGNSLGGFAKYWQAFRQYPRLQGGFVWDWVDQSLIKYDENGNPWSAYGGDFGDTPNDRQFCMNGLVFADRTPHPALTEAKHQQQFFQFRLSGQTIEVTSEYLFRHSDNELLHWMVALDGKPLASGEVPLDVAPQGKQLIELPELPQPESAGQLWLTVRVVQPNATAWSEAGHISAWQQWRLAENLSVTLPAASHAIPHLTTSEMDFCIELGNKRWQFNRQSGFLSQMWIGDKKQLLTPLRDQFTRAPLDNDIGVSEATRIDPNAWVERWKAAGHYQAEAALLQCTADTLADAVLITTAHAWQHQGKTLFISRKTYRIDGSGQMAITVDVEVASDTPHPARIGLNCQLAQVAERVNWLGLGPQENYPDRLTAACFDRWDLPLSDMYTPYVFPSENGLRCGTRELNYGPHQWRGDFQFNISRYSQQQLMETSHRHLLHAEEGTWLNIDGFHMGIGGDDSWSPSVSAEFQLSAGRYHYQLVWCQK

Compound	time for which lacZ negative yeast cells remain unstained (β-galactosidase [1])	time within which most lacZ positive yeast cells become fluorescent (β-galactosidase [1]) [min]	cytotoxicity [2]	cell morphology and population doubling time ([2]; 100 μM working medium, 24 hours)	time at which fluorescence intensity of stained CRE BAG 2 cells reaches its highest level (β-galactosidase [3]; 100 μM working medium) [h]	fluorescent staining of 3T3 cells (lacZ negative) (β-galactosidase [3]; 100 μM, 60 minutes, 37° C.)	fluorescent staining of lacZ positive CRE BAG 2 cells (β-galactosidase [3]; 100 μM, 60 minutes, 37° C.)	fluorescence of stained fixed A431 cells [4]
O=c1[nH]c(-c2ccccc2O[C@@H]2O[C@H](CO)[C@H](O)[C@H](O)[C@H]2O)nc2ccccc12 [1h]	at least 2 hours	≤ 15	no cytotoxicity	look morphologically normal and have the same population doubling time as the control	6	not in the 3T3 cells	fluorescent spots can be observed in the cytoplasmic area	
fluorescein EGF: direct fluorescent conjugate of epidermal growth factor (NSDSECPLSHDGYCLHDGVCMYIEALDKYACNCVVGYIGERCQYRDLKWWELR; Epidermal growth factor fluorescein label; UniProt P01133 971-1023, looked up)								extremely low visibility and very low photostability
